Entries after “also recorded” stand apart in the source; their conditions may differ. Read-outs that look alike come from different tables or passages of the source.
How the values were obtained:
[1] = molecular target: neuronal nicotinic receptors; test: Displacement of [3H]-MCC or [3H]-cytisine from neuronal nicotinic receptors, whole rat brain membranes; format: binding
[2] = tested on: neuronal nicotinic cholinergic channels in PC12 cells; test: Cholinergic channel activator action in PC12 cells, whole-cell patch-clamp; format: cell-based, rat; settings: PC12 cells; mean ± S.E.M.
Description: Electrophysiologic recordings were obtained from differentiated (neurite-bearing) cells after 4-7 days exposure to NGF. […] After 20 minutes, differentiating medium was added (DMEM containing 100 ng/ml nerve growth factor, 5% heat-inactivated fetal calf serum and 2.5% heat-inactivated horse serum) and the cells were refed with this medium every 3 days.
The intracellular (recording pipette) solution consisted of 140 mM KCl, 1.0 mM CaCl2, 2.0 mM MgCl2, 11 mM K-EGTA, and 10 mM K-HEPES buffer (7.3 pH, 315 mOsm). Osmolarities were adjusted using dextrose such that the extracellular solution was 10 mOsm hypertonic compared to the intracellular solution. Voltage-gated inward (sodium) and outward (potassium) currents were monitored throughout the experiment to determine establishment and maintenance of the whole-cell recording configuration.

[3] = tested on: retention of the avoidance response; test: Inhibitory avoidance test; format: in vivo
Excerpt: The inhibitory (or sometimes called passive) avoidance (IA) test is a well-accepted animal model for learning/memory and is widely used to assess the activity of novel cognition enhancers in enhancing cognitive function (Wanibuchi et al., Eur. J. Pharmacol., 1990, 187:479). According to this test, animals are placed in the illuminated (12×14×11 cm) portion of a two-chambered box, from which they enter through a guillotine door to the larger (24×13.5×12 cm) dark compartment of the box. Entry to the dark compartment is accompanied by a mild (0.35 mA), brief (2 seconds) footshock. Initial latencies to cross are recorded, with an imposed 60 second ceiling. Following a 24 hour retention interval, animals are returned to the illuminated chamber, and latency to return to the dark compartment is again recorded, with a ceiling of 180 seconds. No footshock is administered on the test day.
Twelve animals were used in each group.

[4] = tested on: time spent in the open arms (anxiolytic activity); test: Mouse elevated plus-maze; format: in vivo, CD1 mice
Excerpt: The mouse elevated plus-maze is a commonly-used conflict test that probes anxiolytic activity of test compounds (Lister, Psychopharmacology, 1987, 92 180). It is based on the fact that exposure of mice to an elevated open arm leads to an avoidance response considerably stronger than that evoked by exposure to an enclosed arm.
The apparatus required to perform this test is made of plywood and consists of two open arms (17×8 cm) and two enclosed arms (17×8×15 cm) extending from a central platform (8×8 cm). It is mounted on a plywood base rising 39 cm above the floor. Mice are released on the central platform and the time spent in the open and enclosed arms is recorded during a 5 minute test period.
The compound of Example 2 (0.0108-1.08 μmol/kg, i.p.) was administered to CD1 mice (n=12 per group) 15 minutes before the test.

spike wave discharges = test: Attenuation of petit mal absence-like spike wave discharges (EEG); format: in vivo, male Wistar rats; settings: for Total spike wave duration: p < 0.05
Description: Animals: Male albino rats of the Wistar strain (CAMM Research) were maintained on a 12:12 hour light-dark cycle and individually housed throughout these experiments. They were fed standard rodent diet with food and water provided ad libitum.
EEG Recordings: To record spike wave discharges, rats were surgically implanted with permanently affixed EEG electrodes over the frontal codex using previously described techniques (Radek, Brain Res., 1993, in press). After at least a ten day recovery from this surgery, EEG recordings were made inside darkened sound attenuating chambers. Rats were allowed to move freely within the chambers and computerized activity monitors recorded animal motion during these studies. Only those rats that express spike wave discharges, as identified from preliminary recordings, were used to test the effects of nicotinic agents.
Drug studies: EEG recordings were obtained from each rat for a period of 20 minutes of total waking immobility immediately after administration of drug, or a drug-free control solution. Immobility was characterized as the absence of infrared beam interruptions from the activity monitor system. Spike wave activity was identified as regular 6-10 Hz complexes with amplitudes of 0.4 to 1.0 mV. The total spindling duration for 20 minutes of waking immobility was calculated by determining the length (in seconds) of each spike wave burst, and adding each of these times together to obtain a total spindle time for the recording session. Each rat was administered the control solution and one or two doses of the test compounds and each dosing was given at least 48 hours after the previous treatment.
The compound of Example 2 was dissolved in saline to the desired concentration.

1-4 Hz slow wave EEG = 1-4 Hz slow wave EEG amplitude; format: in vivo, male Wistar rats

Q: For Cc1cc([C@@H]2CCCN2C)on1.O=C(O)C(=O)O [Example 2, 3-Methyl-5-(1-methyl-2(S)-pyrrolidinyl)-isoxazole oxalate salt], which Ki ([1]; Table 1, oxalate salt, read-out: Nicotinic Receptor Ki) is on record?
A: 5 nM

Q: And the Ki ([1]; Table 2, read-out: Nicotinic Ki)?
A: 5 nM

Q: What about the EC50 [2] of the same molecule?
A: 209000 ± 76000 nM

Q: And the “equally efficacious at fraction of the dose of (-)-nicotine in IA” value ([3]; dose relative to (-)-nicotine)?
A: 1/17

Q: What about the “Inhibitory Avoidance (IA) result” value ([3]; i.p. 15 min before training, retention at 24 h, p<0.05, oxalate salt) of the same molecule?
A: significantly facilitated the retention of the avoidance response; also recorded: significant

Q: What about the “Elevated Plus-Maze (EPM) doses with significant effect” value ([4]; i.p., p<0.05) of the same molecule?
A: 0.036 to 1.08 µmol/kg

Q: And the “Elevated Plus-Maze (EPM) result” value ([4]; i.p., time in open arms, p<0.05, oxalate salt)?
A: clear anxiolytic response; also recorded: significant

Q: And the “anxiolytic potency relative to (-)-nicotine” value ([4]; more potent than (-)-nicotine)?
A: at least 10 fold

Q: And the “Total spike wave duration” value (spike wave discharges; Table 8, 1.9 μmol/kg i.p.)?
A: 26.7 ± 9.2 s

Q: What about the “Total spike wave duration” value (spike wave discharges; Table 8, 6.2 μmol/kg i.p.) of the same molecule?
A: 33.1 ± 10.2 s

Q: And the “Total spike wave duration” value (spike wave discharges; Table 9, 10 μmol/kg p.o.)?
A: 25.6 ± 7.5 s

Q: What about the “Total spike wave duration” value (spike wave discharges; Table 11, 6.2 μmol/kg i.p.) of the same molecule?
A: 8.2 ± 3.8 s

Q: And the “effect on incidence of spike wave discharges” value (spike wave discharges; i.p., 20 min waking immobility, p<0.05 where significant)?
A: significantly lowered the incidence of spike wave discharges

Q: What about the “effect on incidence of spike wave discharges” value (spike wave discharges; oral, 10.0 μmol/kg, p<0.05) of the same molecule?
A: significantly lowered the incidence of spike wave discharges

Q: What about the “1-4 Hz amplitude” value (1-4 Hz slow wave EEG; 1.9 μmol/kg i.p.) of the same molecule?
A: 27.3 ± 5.0 μVolts

Q: What about the “effect on low frequency (1-4 Hz) EEG slow-wave patterns” value (1-4 Hz slow wave EEG; i.p.) of the same molecule?
A: does not affect those patterns

Source: patent publication US5409946A, “Isoxazole, isothiazole and pyrazole compounds that enhance cognitive function” (Abbott Laboratories, priority 1993, dated 1995)
